From US7317125B2 (Hoffman-La Roche Inc., priority 2005, dated 2008)

target: T1, DGAT1 (Homo sapiens, UniProt O75907); experiment: DGAT CHOK1 Cell Assay; format: cell-based; conditions: CHOK1 cells transfected with DGAT1, 14C palmitic acid, 1 hour at 37° C., triglyceride by TLC
T1 construct: expressed in transfected cells; host or cells: CHOK1
T1 sequence (O75907 1-488): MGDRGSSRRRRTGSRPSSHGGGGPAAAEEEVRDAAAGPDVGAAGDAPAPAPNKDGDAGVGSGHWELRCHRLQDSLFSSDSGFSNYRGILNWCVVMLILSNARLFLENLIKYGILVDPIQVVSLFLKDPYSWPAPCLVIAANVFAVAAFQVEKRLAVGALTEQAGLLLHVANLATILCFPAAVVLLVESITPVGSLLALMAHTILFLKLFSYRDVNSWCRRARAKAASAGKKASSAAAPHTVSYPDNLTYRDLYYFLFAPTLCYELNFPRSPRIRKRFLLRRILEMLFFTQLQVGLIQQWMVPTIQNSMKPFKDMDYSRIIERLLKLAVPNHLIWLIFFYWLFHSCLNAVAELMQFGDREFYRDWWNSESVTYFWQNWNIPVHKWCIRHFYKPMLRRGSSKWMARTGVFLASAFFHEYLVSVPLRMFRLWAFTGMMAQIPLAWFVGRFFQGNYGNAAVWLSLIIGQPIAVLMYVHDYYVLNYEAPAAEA
Description: Materials for the assay were: petroleum ether (J. T. Baker #9268-22); diethyl ether (Aldrich #30995-8); acetic acid; 1,2-dioleoyl-3-palmitoyl-glycerol (Sigma D-1782); ^[…] Palmitic Acid (56.0 mCi/mmol PerkinElmer Life Sciences # NEC 075H); DMEM/F12 (Gibco #11330-032); fetal bovine serum; L-Glutamine; G418/ml media; DMEM High Glucose (Gibco #11995-065); BSA Fraction V Fatty Acid Free (Roche #100 377); 20×°cm silica gel 60 glass plates (EM Science Plates #5721/7).
CHOK1/DGAT cell culture medium was prepared with DMEM/F12 (Gibco #11330-032), […], and 20 ul G418/ml media. 1,2-dioleoyl-3-palmitoyl-glycerol was prepared by dissolving 10 mg into 1 ml chloroform and stored at −20° C. in 100 μl aliquots. Test compounds were prepared as 10 mM stock solutions in DMSO and store at −20° C. before use. Test dilutions were prepared by five fold serial dilutions over final concentrations.
CHOK1 cells transfected with DGAT1 were diluted in 6 well plates at 2.5×10^5 cells per well and cultured overnight. Cells were then washed twice with PBS. Test compound solutions (10 μl/2 ml media aliquots) in DMEM High Glucose with 0.01% BSA (fatty acid free) were added to cell culture plates at 800 μl per well. ^14C Palmitic acid (0.5 μCi, 5 μl) was added to each well. The plates were incubated for 1 hour at 37° C. After the incubation period, the plates were placed on ice, cells were scraped into media and transferred to microfuge tubes. 400 μl chloroform:methanol (2:1) was added to each tube. Each tube was briefly vortexed by hand, then mechanically vortexed for 10 minutes. Each tube was then centrifuged at 14,000 RPM for 10 minutes at 4° C. and the bottom layer removed and transferred to a new microfuge tube.
Extracted samples were spotted onto TLC plates at 20 μl per lane. The TLC plates were eluted with a solvent mixture of petroleum ether, diethyl ether and acetic acid (80:20:1) and air dried. Trigylceride (TG) spots were visualized by placing in an iodine chamber for several minutes. 1 μl of ^14C palmitic acid (diluted 1:10 in 100% EtOH) was spotted on the TG standard lane (at TG level) as a reference. The TLC plates were wrapped in plastic wrap and placed in a phosphorimager cassette for scanning.
The EC50 values for those compounds tested in this Example were generated using an Excel template, the results of which are shown in Table II: […]

| EC50 [µM] | Structure (SMILES) |
| --- | --- |
| 1.24 | CC(C)N(NC(=O)C1CCOCC1)C(=O)COc1ccc(F)cc1-c1ccccc1OC(F)(F)F [Example 34, tetrahydro-pyran-4-carboxylic-acid-N′-[2-(5-fluoro-2′-trifluoromethoxy-biphenyl-2-yloxy)-acetyl]-N′-isopropyl-hydrazide] |
| 11.1 | CC(C)N(NC(=O)c1ccoc1)C(=O)COc1ccc(F)cc1-c1ccccc1OC(F)(F)F [Example 37, furan-3-carboxylic acid N′-[2-(5-fluoro-2′-trifluoromethoxy-biphenyl-2-yloxy)-acetyl]-N′-isopropyl-hydrazide] |
| 2.81 | CC(C)N(NC(=O)C1CCCCC1)C(=O)COc1ccc(F)cc1-c1ccccc1OC(F)(F)F [Example 38, cyclohexanecarboxylic acid N′-[2-(5-fluoro-2′-trifluoromethoxy-biphenyl-2-yloxy)-acetyl]-N′-isopropyl-hydrazide] |
| 3.05 | COCCOc1ccc(C(=O)NN(C(=O)COc2ccc(F)cc2-c2ccccc2OC(F)(F)F)C(C)C)cc1 [Example 39, 4-(2-methoxy-ethoxy)-benzoic acid N′-[2-(5-fluoro-2′-trifluoromethoxy-biphenyl-2-yloxy)-acetyl]-N′-isopropyl hydrazide] |
| 3.48 | CC(C)N(NC(=O)c1cccs1)C(=O)COc1ccc(F)cc1-c1ccccc1OC(F)(F)F [Example 40, thiophene-2-carboxylic acid N′-[2-(5-fluoro-2′-trifluoromethoxy-biphenyl-2-yloxy)-acetyl]-N′-isopropyl hydrazide] |
| 0.774 | CC(C)N(NC(=O)C1CCSCC1)C(=O)COc1ccc(F)cc1-c1ccccc1OC(F)(F)F [Example 41, tetrahydro-thiopyran-4-carboxylic acid N′-[2-(5-fluoro-2′-trifluoromethoxy-biphenyl-2-yloxy)-acetyl]-N′-isopropyl hydrazide] |
| 3.29 | CC(C)N(NC(=O)c1ccsc1)C(=O)COc1ccc(F)cc1-c1ccccc1OC(F)(F)F [Example 42, thiophene-3-carboxylic acid N′-[2-(5-fluoro-2′-trifluoromethoxy-biphenyl-2-yloxy)-acetyl]-N′-isopropyl hydrazide] |
| 3.4 | CC(C)N(NC(=O)c1ccccc1)C(=O)CSc1ccccc1-c1cccc(F)c1 [Example 48, benzoic acid N′-[2-(3′-fluoro-biphenyl-2-ylsulfanyl)-acetyl]-N′-isopropyl-hydrazide] |
| 5.67 | Cc1cccc(-c2ccccc2SCC(=O)N(NC(=O)c2ccccc2)C(C)C)c1C [Example 49, benzoic acid N′-[2-(2′,3′-dimethyl-biphenyl-2-ylsulfanyl)-acetyl]-N′-isopropyl-hydrazide] |
| 1.29 | COc1cccc(-c2ccccc2SCC(=O)N(NC(=O)c2ccccc2)C(C)C)c1 [Example 50, benzoic acid N′-[2-(3′-methoxy-biphenyl-2-ylsulfanyl)-acetyl]-N′-isopropyl-hydrazide] |
| 4.9 | CC(C)N(NC(=O)c1ccccc1)C(=O)CSc1ccccc1-c1ccc(F)cc1 [Example 51, benzoic acid N′-[2-(4′-fluoro-biphenyl-2-ylsulfanyl)-acetyl]-N′-isopropyl-hydrazide] |
| 1.6 | CC(C)N(NC(=O)c1ccccc1)C(=O)CSc1ccccc1-c1cccc(C(F)(F)F)c1 [Example 52, benzoic acid N′-[2-(3′-trifluoromethyl-biphenyl-2-ylsulfanyl)-acetyl]-N′-isopropyl-hydrazide] |
| 6.7 | COc1ccccc1-c1ccccc1SCC(=O)N(NC(=O)c1ccccc1)C(C)C [Example 53, benzoic acid N′-[2-(2′-methoxy-biphenyl-2-ylsulfanyl)-acetyl]-N′-isopropyl-hydrazide] |
| 1.43 | CC(C)N(NC(=O)c1ccccc1)C(=O)CSc1ccccc1-c1ccccc1F [Example 54, benzoic acid N′-[2-(2′-fluoro-biphenyl-2-ylsulfanyl)-acetyl]-N′-isopropyl-hydrazide] |
| 2.3 | COc1ccc(-c2ccccc2SCC(=O)N(NC(=O)c2ccccc2)C(C)C)cc1 [Example 55, benzoic acid N′-[2-(4′-methoxy-biphenyl-2-ylsulfanyl)-acetyl]-N′-isopropyl-hydrazide] |
| 37.4 | CC(C)N(NC(=O)c1ccccc1)C(=O)CSc1ccccc1-c1ccccc1 [Example 56, benzoic acid N′-[2-(biphenyl-2-ylsulfanyl)-acetyl]-N′-isopropyl-hydrazide] |
| 0.348 | CC(C)CNc1ccc(C(=O)NN(C(=O)COc2ccc(F)cc2-c2ccccc2OC(F)(F)F)C(C)C)cc1 [Example 57, 4-(isobutylamino)-benzoic acid N′-[2-(5-fluoro-2′-trifluoromethoxy-biphenyl-2-yloxy)-acetyl]-N′-isopropyl hydrazide] |
